According to patent publication US20010055756A1, “Internal de novo initiation sites of the HCV NS5B polymerase and use thereof” (priority 2000, published 2001):
Entries after “also recorded” stand apart in the source; their conditions may differ.

System: HCV NS5B polymerase
Experiment: Testing of GTP analogs in the NS5B de novo initiation reaction with RNA template 24-1
Assay type: biochemical, hepatitis C virus
Conditions: analog at 500 μM added to reactions with 100 μM or 500 μM GTP, 5 nM NS5B, 10 nM template 24-1, 2.5 h
Procedure: Unless indicated otherwise, the standard reactions that incorporated [α-^33P]UTP contained 5 nM of purified NS5B and 10-50 nM of the indicated RNA template (i.e.: 24, 24-1, 128-4, 130-21, 150-41 or mutant templates) incubated at 22° C. for 2.5 h in 22.5 mM Tris-HCl pH 7.5, 5 mM MgCl2, 1 mM EDTA, 1.5 mM DTT, 30 mM NaCl, 0.33% N-Dodecyl-β-D-Maltoside, 0.01% Igepal CA-630, 5% DMSO, 5 μCi [α-^33P]UTP, 10 μM UTP, 500 μM of the three other rNTPs and 0.16 U/μl RNase inhibitor (Promega). NS5B polymerase reactions that incorporated γ-^32P into the radioactively labeled 5′product were supplemented with either 8 μCi of [γ-^32P]GTP or [γ-^32P]ATP in place of [α-^33P]UTP in the standard reaction. The reactions were then supplemented with PK buffer (50 mM Tris HCl pH 7.5 150 mM NaCl, 0.5% SDS) and treated with Proteinase K (0.8 μg /μl) and glycogen (0.1 μg/μl) for 30 min at 37° C. RNA was extracted with phenol-chloroform and precipitated with isopropanol. The RNA pellet was dissolved in 10-15 μl of denaturing solution (80% formamide, 10 mM EDTA), heated for 10 min at 70-75° C. and analysed on denaturing 8 M urea/5% polyacrylamide gels. Gels were dried and radioactive products visualized with a phospho-imager (Molecular Dynamics).
m7GpppG and GpppG were purchased from Ambion; Ribavirin monophosphate and Ribavirin triphosphate were purchased from Chemgenes (Ashland, Mass.); ddGTP was from Amersham; Caged GTP was from Molecular Probes. All other GTP analogs were from Sigma/Aldrich. Each of the analogs was added (at 500 μM) to the NS5B polymerization reaction containing either: 100 μM or 500 μM GTP (reference reactions). Stimulation by GTP itself, as a positive control, was performed such that the reactions then contained 600 μM or 1 mM GTP (respectively labeled as the +500 μM GTP bars). The standard polymerase reactions incorporating [α-^33P]UTP were incubated for 2.5 h in the presence of 5 nM NS5B and 10 nM of RNA template 24-1. The reactions were stopped by spotting 8 μl on a DE81 filters which were then washed extensively (3×) with 1M NaPO4 pH 7 and dried. The radioactivity incorporated into product RNA that was retained on the DE-81 filters was measured in a scintillation counter. The effect of the various analogs on the reaction is represented by the fold stimulation of activity compared to 100μM or 500μM GTP (reference reaction bars). 5′-p-FSBA=5′-p-fluorosulfonyl-benzoyladenosine

Row | Compound | effect on de novo initiation reaction (fold stimulation relative to GTP alone) | other results
1 | Nc1nc2c(ncn2[C@@H]2O[C@H](COP(=O)(O)O)[C@@H](O)[C@H]2O)c(=O)[nH]1 [GMP] | stimulating | 
2 | Nc1nc2c(ncn2C(C=O)OC(C=O)COP(=O)(O)OP(=O)(O)OP(=O)(O)O)c(=O)[nH]1.[Na] (stereo not drawn) [GTP 2′3′-dialdehyde] | clear inhibitor; also recorded: inhibiting | effect on de novo initiation reaction (fold stimulation relative to GTP alone) (listed as GTP 2′3′dialdehyde): inhibitory
3 | Nc1nc2c(ncn2[C@@H]2O[C@H](COP(=O)(O)OP(=O)(O)OP(=O)(O)O)[C@@H](O)[C@H]2O)c(=O)[nH]1 [GTP] | activation | 
4 | Nc1nc2c(ncn2[C@@H]2O[C@H](COP(=O)(O)OP(=O)(O)OP(=O)(O)OC[C@H]3O[C@@H](n4cnc5c(=O)[nH]c(N)nc54)[C@H](O)[C@@H]3O)[C@@H](O)[C@H]2O)c(=O)[nH]1 [GpppG] | most efficient analogs in stimulating de novo initiation; also recorded: stimulating; also recorded: stimulate | 
5 | CC(OP(=O)(O)OP(=O)(O)OP(=O)(O)OC[C@H]1O[C@@H](n2cnc3c(=O)[nH]c(N)nc32)[C@H](O)[C@@H]1O)c1ccccc1[N+](=O)[O-] (stereo partly drawn) [caged-GTP] | stimulating | 
6 | Nc1nc2c(ncn2[C@@H]2O[C@H](CO)[C@@H](O)[C@H]2O)c(=O)[nH]1 [guanosine] | stimulating; also recorded: stimulate | 
7 | Cn1c[n+]([C@@H]2O[C@H](COP(=O)(O)OP(=O)([O-])OP(=O)(O)OC[C@H]3O[C@@H](n4cnc5c(=O)[nH]c(N)nc54)[C@H](O)[C@@H]3O)[C@@H](O)[C@H]2O)c2nc(N)[nH]c(=O)c21 [m7 GpppG, 7-methyl GpppG] | most efficient analogs in stimulating de novo initiation | effect on de novo initiation reaction (fold stimulation relative to GTP alone) (listed as 7-methyl GpppG): stimulating; also recorded: stimulate
8 | NC(=O)c1ncn([C@@H]2O[C@H](CO[P@@](=O)(O)O[P@](=O)(O)OP(=O)(O)O)[C@@H](O)[C@H]2O)n1 [ribavirin tri-phosphate, Ribavirin triphosphate] | moderate level of inhibition | effect on de novo initiation reaction (fold stimulation relative to GTP alone) (listed as ribavirin triphosphate): inhibiting; also recorded: inhibitory
9 | GDP-γ-S | stimulating | 
